Test results published in patent publication EP2905621B1, “MEANS AND METHODS FOR DIAGNOSING AND TREATING CDG CAUSED BY A DEFICIENCY OF PGM1” (Westfälische Wilhelms-Universität Münster, priority 2014, dated 2015).

What was measured:
total serum N-glycome = test: Dietary supplementation in patients: total serum N-glycome by capillary electrophoresis; assay type: in vivo, human; details: patients with galactose supplementation
Description: • Figure 1. Glycoprotein Biosynthesis and Congenital Disorders of Glycosylation. For the N-glycosylation of proteins, a glycan precursor is assembled from monosaccharide units on an anchoring isoprenoid alcohol, dolichol, in the membrane of the endoplasmic reticulum. Each glycan precursor is then transferred en bloc to a specific asparagine residue in the nascent peptide chain of a protein being synthesized by a ribosome and entering the endoplasmic reticulum. Because transferrin (brown line) is abundant in blood, it is used as an indicator of the efficiency of the glycosylation system. Transferrin has two glycosylation sites. The protein is transported to the Golgi apparatus, and the glycans are modified in multiple steps. Each fully modified glycan is terminated with two negatively charged sialic acid residues. Thus, the transferrin molecule carries a total of four sialic acid residues. If a genetic defect impairs synthesis of the precursor glycan in the endoplasmic reticulum, one or both glycosylation sites of transferrin may remain unoccupied (white arrow). Such defects are classified as congenital disorders of glycosylation type I (CDG-I). […] CDG-I defects are easily identified owing to the occurrence of transferrin isoforms with two or no sialic acid residues detected by means of IEF. […]

skin fibroblasts = test: Evaluation of glycogen by electron microscopy in fibroblasts; assay type: cell-based, human; details: 5.5 mM sugar in medium, 50 h
Experimental: For electron microscopy, skin fibroblasts of patients and controls were cultured to a confluence of 50 to 70% in M199 medium (Life Technologies) supplemented with 10% fetal calf serum and 1% penicillin/streptomycin in a humidified atmosphere containing 5% CO2 at 37°C. Cells were switched to a medium consisting of DMEM supplemented with 4mM L-glutamine (Invitrogen), 10% dialyzed FCS (Gibco), 1mM uridine (Calbiochem), and either 5.5 mM D-glucose (Sigma), or 5.5 mM D-Galactose (Merck). After 50 h of incubation, cells were centrifuged for 10 min at 1000rpm and fixed by gentle addition of 2% glutaraldehyde buffered with 0.1 M sodium cacodylate pH7.4 after removing the medium. After at least 4h fixation, the pellets were very carefully taken off and post-fixed in 1% osmium tetroxide in Palade buffer pH 7.4 with 1% potassium hexacyanoferrate(III)-trihydrate, and after dehydration in ethanol and propylene oxide, embedded in Epon for electron microscopy. Semithin 1µm thick transverse sections were stained with 1% Toluidine Blue. Ultrathin sections were stained with uranyl acetate and lead citrate and examined on a JEOL 1200 EX\II. […] Cells with small darkly staining aggregates of glycogen were counted as positive. Fibroblasts were prepared for evaluation of glycogen by electron microscopy as described above. The presence of glycogen in control and patient fibroblasts cultured in the presence of either glucose or galactose was assessed by electron microscopy. Cells (of 115-160 total) with small darkly staining aggregates of glycogen were counted as positive. Aggregates are typically more common in glycogen storage diseases (picture for hepatocytes s. Fig. 7, panel C, D).

[1] = Dietary supplementation in patients: hormones and clinical course; assay type: in vivo, human; details: for levels of luteinizing hormone, increased by a factor of: initially 2.5th percentile
Experimental: (§1) Galactose powder was supplied by Falcento. Galactose levels in whole blood were determined in a healthy volunteer after the oral consumption of 250 ml of water in which 0.3 g of galactose per kilogram of body weight had been dissolved. Measurements of galactose levels in blood were made by means of spectrophotometry at intervals of 10 minutes during the first hour and at intervals of 30 minutes for an additional 3 hours. Lactose or galactose supplementation was administered as an aqueous solution at a dose of 0.5 to 1.0 g per kilogram per day, divided into three to six daily doses (on the basis of patient preference).

transferrin = test: Dietary supplementation in patients: transferrin glycosylation; assay type: in vivo, human; details: for transferrin glycosylation by mass spectrometry: six patients, 0.5 to 1.0 g per kilogram per day, within 2 weeks
Experimental: (§2) Analysis of transferrin glycosylation was performed on serum samples with the use of isoelectric focusing, (3,4) sodium dodecyl sulfate-polyacrylamide-gel electrophoresis (SDS-PAGE), (3) or liquid chromatography-mass spectrometry (9) (Fig. 3, and the Examples II). […] Green fluorescent protein engineered for retention in the endoplasmic reticulum was modified to contain an N-glycosylation site that, when glycosylated, causes loss of fluorescence (Glyc-ER-GFP). (11) Glyc-ER-GFP was transfected into patient fibroblasts in culture, and fluorescence was measured by means of quantitative microscopy (see the Examples II).
as §1
For high-resolution mass spectrometry of transferrin (Fig. 3), a 5 µl serum sample was incubated with anti-transferrin beads as described.^8 The eluate was analyzed on a microfluidic 6540 LC-chip-QTOF instrument (Agilent Technologies) using a C8 protein chip. Data analysis was performed using Agilent Mass Hunter Qualitative Analysis Software B.04.00. The Agilent BioConfirm Software was used to deconvolute the charge distribution of raw data to reconstructed mass data. For confirmation of the structural annotations, samples were processed for analysis of tryptic transferrin peptides by MALDI-TOF as described^9 (results not shown).

[2] = system: PGM1-deficient fibroblasts; test: Assay for cellular glycosylation efficiency using modified GFP (Glyc-ER-GFP); assay type: cell-based, human; details: fibroblasts from patients, galactose alone added to culture medium
Experimental: as §2
Glycosylation efficiency was measured using Glyc-ER-GFP constructs as described.^11 In brief, cells were seeded in a 96 wells-plate at 40% confluence. 24h later, they were incubated in medium without or with addition of supplements (e.g. 0-1 mM galactose +/-100µM uridine) for 2 days with medium replacement every day. Cells were then transfected by the Glyc-ER-GFP and maintained in the same culture media for two more days. Cells were fixed using 4% paraformaldehyde/4% sucrose and stained by Hoechst 33342 (Thermo scientific). Plates were analyzed using a high-content microscope, IN Cell 1000 (GE Healthcare), and data were analyzed with the CytoSeer software (Vala Sciences) using a protein mask.

[3] = Determination of galactose kinetics in whole blood after oral galactose; assay type: in vivo, human; details: healthy volunteer, oral 0.3 g of galactose per kilogram of body weight in 250 ml water
Experimental: as §1
Enzymatic determination of galactose levels in whole blood was performed using exogenous galactose dehydrogenase (galactose + NAD^+ → galactono-1,4-lactone + NADH + H^+). Galactose levels were determined in a healthy control after oral consumption of 0.3 g galactose (falcento AG, Kreuzlingen, Switzerland) per kilogram body weight dissolved in 250 ml water. Measurements of galactose levels were made at intervals of 10 minutes during the first hour and at intervals of 30 minutes for additional three hours.
3000 µl of galactose buffer reagent (Instruchemie, Delfzijl, Netherlands), 100 µl of galactose NAD reagent (Instruchemie) and 200 µl of a diluted calibrator (Instruchemie) were mixed and the absorbance against distilled water was read at a temperature of 25 °C and a wavelength of 340 nm (optical density 1).
500 µl of each whole blood sample were added to 1000 µl perchloric acid (0.33 mol/l) for deproteinization and then centrifuged. 200 µl of the supernatant were added to 3000 µl galactose buffer reagent, 100 µl galactose NAD reagent and absorbance was read (optical density 1). After supplementation of 20 µl galactose start reagent and incubation at 25 °C for 15 min, the optical density 2 was measured in both, the calibrator and blood samples.
For manual calculation of the galactose concentration the following formula was used: galactose(mmol/l) = (ΔO.D.controlorsample)/(ΔO.D.calibrator) × concentrationofcalibrator [formula]

[4] = Patients 2 and 6, after initiation of galactose treatment

plasma concentration of galactose, maximum [3] [µM]	time after which galactose decreased to baseline levels [3] [h]	time of maximum galactose concentration [3] [min]	SMILES	glycosylation of the total serum N-glycome (total serum N-glycome)	% of cells with glycogen aggregates (skin fibroblasts; Control 1 fibroblasts) [%]	% of cells with glycogen aggregates (skin fibroblasts; Control 2 fibroblasts) [%]	% of cells with glycogen aggregates (skin fibroblasts; PGM1-6 patient fibroblasts) [%]	% of cells with glycogen aggregates (skin fibroblasts; PGM1-7 patient fibroblasts) [%]	levels of luteinizing hormone, increased by a factor of ([1]; Patient 2, after initiation of galactose supplementation)	levels of luteinizing hormone, increased by a factor of ([1]; Patient 6, after initiation of galactose supplementation)	hypogonadotropic hypogonadism ([1]; Patients 2 and 6, after initiation of galactose supplementation)	cardiac function [1, 4]	episodes of rhabdomyolysis [1, 4]	ultrasonography of the liver ([1]; Patients 2 and 6, every 3 months during galactose supplementation)	levels of follicle-stimulating hormone (FSH) ([1]; Patients 2 and 6, galactose supplementation)	tetrasialo-transferrin (transferrin; Patient 1.1, daily 0.5 g per kg b.w. in 3 portions, doubled after one week, HPLC, within a few weeks, 50 before) [%]	transferrin glycosylation by mass spectrometry (transferrin)	glycosylation of Glyc-ER-GFP [2]
700	2	50	O=C[C@H](O)[C@@H](O)[C@@H](O)[C@H](O)CO [galactose]	substantial improvement	2	4	<1	<1	5	10	resolved within a few weeks	remained stable	no further episodes	no increase in echogenicity and no signs of cholestasis	normalized	70	improved substantially	substantially enhanced
			OC[C@H]1O[C@@H](O[C@H]2[C@H](O)[C@@H](O)C(O)O[C@@H]2CO)[C@H](O)[C@@H](O)[C@H]1O (stereo partly shown) [lactose]														improved substantially	
